# Results as given in patent US10945992B1, “Dosage forms of rofecoxib and related methods” (Tremeau Pharmaceuticals, Inc., priority 2019, dated 2021).
# Like-named read-outs stand apart in the source and are kept apart here.
# Test: TRM-201-PK-102 single-dose four-period crossover pharmacokinetic study, fasted healthy subjects
# Type: in vivo, human
# Conditions: for geometric mean ratio AUC0-∞ to historical data for the 25 mg VIOXX product / geometric mean ratio Cmax to historical data for the 25 mg VIOXX product: sensitivity analysis; for AUC(0-inf) / Cmax: human, plasma, oral
# Protocol: A Single-Dose, Open-Label, Phase 1, Four-Period Crossover Pharmacokinetic Study of TRM-201 (Rofecoxib) 12.5 mg, 17.5 mg, 20 mg and 25 mg Administered to Healthy Subjects in a Fasting State, with Comparison to Historical Pharmacokinetic Parameters of Previously Marketed Rofecoxib (“TRM-201-PK-102” or “102 PK Study”)
# This was a single-center, open-label four-period crossover PK study of TRM-201. The study included 24 subjects who received TRM-201 as a single dose of 12.5 mg, 17.5 mg, 20 mg and 25 mg to assess the PK of TRM-201 in healthy volunteers under fasted conditions. Subjects were randomized to one of four treatment sequences. The PK data from the current study along with the data from the TRM-201-PK-101 study (Example 4) was used to compare to historical pharmacokinetic parameters of previously marketed rofecoxib, all in a fasted state.
# In each of the four dosing periods, subjects fasted overnight for at least 10 hours before study drug dosing. While fasting, subjects had nothing to eat and only water to drink. Water was permitted as desired, except for the period between 1 hour before and 1 hour after study drug dosing (excepting as permitted for dosing). After the 2-hour PK blood sample, subjects were allowed one 250-mL cup of clear apple juice. After the 4-hour PK blood sample, subjects were served a light lunch. Following the light lunch, subjects received standardized meals according to the clinic's standard procedures that were scheduled at consistent times and at least 15 minutes before or 15 minutes after PK sampling time points. Blood was withdrawn for PK analysis at predefined time points. For each dosing period the last time point was 120 hours after dosing with study drug (Day 6). After the 120 hour PK sample, the EOP procedures was completed, subjects remained in-clinic for the in-between dose period day (Days 7, 14, and 21) and began the next dosing period starting with an overnight fast for at least 10 hours on Day −1 of the subsequent dosing period. Pharmacokinetic and safety endpoints were evaluated.
# The study drug, TRM-201, was an immediate-release tablet that contained 12.5 mg rofecoxib, 17.5 mg rofecoxib, 20 mg rofecoxib or 25 mg rofecoxib. The 7.25-mm diameter tablets were off-white, round, and uncoated with no markings. TRM-201 tablets were for oral administration.
# For each sample, approximately 3 mL of blood were drawn. The samples were obtained by a straight stick or via an in-dwelling intravenous (IV) catheter in a forearm vein. Additional details for the collection, processing, storage, and shipping of PK samples were provided in the study manual.
# Pharmacokinetic samples will be analyzed using a validated assay for rofecoxib in human plasma. Assay results and validation details will be provided in a separate bioanalytical report. The following PK parameters for rofecoxib will be calculated as primary endpoints using standard noncompartmental methods: AUC0-∞ and Cmax. Secondary endpoints include Tmax, and t1/2. Additional PK parameters (e.g., CL/F, and Vd/F) will also be calculated using standard noncompartmental methods.
# Individual plasma concentrations for rofecoxib and PK sampling time deviation data will be presented in a data listing. Plasma concentration data will be summarized by time point using the following descriptive statistics: number of subjects, arithmetic mean, SD, coefficient of variation (CV), geometric mean, natural-log-scale SD, geometric CV, median, minimum, and maximum. Individual plasma concentration versus actual time profiles were presented on both linear and semilogarithmic scales. Additionally, arithmetic mean concentration versus scheduled time profiles were presented on linear scales and geometric means on semilogarithmic scales.
# The PK parameters of rofecoxib were analyzed based on the actual sampling times. […]
structure (smiles),measurement,setting,value
"CS(=O)(=O)c1ccc(C2=C(c3ccccc3)C(=O)OC2)cc1 [TRM-201, 4-[4-(methylsulfonyl)phenyl]-3-phenyl-2(5H)-furanone]",arithmetic mean plasma concentration,"17.5 mg, 15 minutes",2.42 ng/mL
same,arithmetic mean plasma concentration,"17.5 mg, 45 minutes",93 ng/mL
same,geometric mean ratio AUC0-∞ to historical data for the 25 mg VIOXX product,TRM-201 17.5 mg,0.819
same,geometric mean ratio Cmax to historical data for the 25 mg VIOXX product,TRM-201 17.5 mg,1.03
same,geometric mean ratio AUC0-∞ to historical data for the 25 mg VIOXX product,TRM-201 20 mg,0.934
same,geometric mean ratio Cmax to historical data for the 25 mg VIOXX product,TRM-201 20 mg,1.19
same,AUC(0-inf),"female, 12.5 mg, 102 study, females, read-out: arithmetic mean AUC0-∞",2240 ng·h/mL
same,Cmax,"female, 12.5 mg, 102 study, females, read-out: arithmetic mean Cmax",168 ng/mL
same,AUC(0-inf),"female, 12.5 mg, 102 study, females, read-out: geometric mean AUC0-∞",2170 ng·h/mL
same,Cmax,"female, 12.5 mg, 102 study, females, read-out: geometric mean Cmax",160 ng/mL
same,AUC(0-inf),"female, 17.5 mg, 102 study, females, read-out: arithmetic mean AUC0-∞",3650 ng·h/mL
same,Cmax,"female, 17.5 mg, 102 study, females, read-out: arithmetic mean Cmax",266 ng/mL
same,AUC(0-inf),"female, 17.5 mg, 102 study, females, read-out: geometric mean AUC0-∞",3490 ng·h/mL
same,Cmax,"female, 17.5 mg, 102 study, females, read-out: geometric mean Cmax",251 ng/mL
same,AUC(0-inf),"female, 20 mg, 102 study, females, read-out: arithmetic mean AUC0-∞",4270 ng·h/mL
same,Cmax,"female, 20 mg, 102 study, females, read-out: arithmetic mean Cmax",314 ng/mL
same,AUC(0-inf),"female, 20 mg, 102 study, females, read-out: geometric mean AUC0-∞",4160 ng·h/mL
same,Cmax,"female, 20 mg, 102 study, females, read-out: geometric mean Cmax",293 ng/mL
same,AUC(0-inf),"female, 25 mg, 102 study, females, read-out: arithmetic mean AUC0-∞",5090 ng·h/mL
same,Cmax,"female, 25 mg, 102 study, females, read-out: arithmetic mean Cmax",388 ng/mL
same,AUC(0-inf),"12.5 mg, 102 study only, read-out: arithmetic mean AUC0-∞",2010 ng·h/mL
same,Cmax,"12.5 mg, 102 study only, read-out: arithmetic mean Cmax",151 ng/mL
same,AUC(0-inf),"12.5 mg, 102 study only, read-out: geometric mean AUC0-∞",1880 ng·h/mL
same,Cmax,"12.5 mg, 102 study only, read-out: geometric mean Cmax",144 ng/mL
same,AUC(0-inf),"12.5 mg, 102 study, 18-40 years, read-out: arithmetic mean AUC0-∞",1680 ng·h/mL
same,Cmax,"12.5 mg, 102 study, 18-40 years, read-out: arithmetic mean Cmax",164 ng/mL
same,AUC(0-inf),"12.5 mg, 102 study, 18-40 years, read-out: geometric mean AUC0-∞",1570 ng·h/mL
same,Cmax,"12.5 mg, 102 study, 18-40 years, read-out: geometric mean Cmax",156 ng/mL
same,AUC(0-inf),"12.5 mg, 102 study, 41-52 years, read-out: arithmetic mean AUC0-∞",2090 ng·h/mL
same,Cmax,"12.5 mg, 102 study, 41-52 years, read-out: arithmetic mean Cmax",140 ng/mL
same,AUC(0-inf),"12.5 mg, 102 study, 41-52 years, read-out: geometric mean AUC0-∞",1880 ng·h/mL
same,Cmax,"12.5 mg, 102 study, 41-52 years, read-out: geometric mean Cmax",133 ng/mL
same,AUC(0-inf),"12.5 mg, 102 study, 53-60 years, read-out: arithmetic mean AUC0-∞",2270 ng·h/mL
same,Cmax,"12.5 mg, 102 study, 53-60 years, read-out: arithmetic mean Cmax",150 ng/mL
same,AUC(0-inf),"12.5 mg, 102 study, 53-60 years, read-out: geometric mean AUC0-∞",2240 ng·h/mL
same,Cmax,"12.5 mg, 102 study, 53-60 years, read-out: geometric mean Cmax",143 ng/mL
same,AUC(0-inf),"12.5 mg, 102 study, Black or African-American subjects, read-out: arithmetic mean AUC0-∞",1660 ng·h/mL
same,Cmax,"12.5 mg, 102 study, Black or African-American subjects, read-out: arithmetic mean Cmax",143 ng/mL
same,AUC(0-inf),"12.5 mg, 102 study, Black or African-American subjects, read-out: geometric mean AUC0-∞",1590 ng·h/mL
same,Cmax,"12.5 mg, 102 study, Black or African-American subjects, read-out: geometric mean Cmax",142 ng/mL
same,AUC(0-inf),"12.5 mg, 102 study, Hispanic or Latino subjects, read-out: arithmetic mean AUC0-∞",2210 ng·h/mL
same,Cmax,"12.5 mg, 102 study, Hispanic or Latino subjects, read-out: arithmetic mean Cmax",157 ng/mL
same,AUC(0-inf),"12.5 mg, 102 study, Hispanic or Latino subjects, read-out: geometric mean AUC0-∞",2090 ng·h/mL
same,Cmax,"12.5 mg, 102 study, Hispanic or Latino subjects, read-out: geometric mean Cmax",146 ng/mL
same,AUC(0-inf),"12.5 mg, 102 study, White subjects, read-out: arithmetic mean AUC0-∞",2110 ng·h/mL
same,Cmax,"12.5 mg, 102 study, White subjects, read-out: arithmetic mean Cmax",153 ng/mL
same,AUC(0-inf),"12.5 mg, 102 study, White subjects, read-out: geometric mean AUC0-∞",1960 ng·h/mL
same,Cmax,"12.5 mg, 102 study, White subjects, read-out: geometric mean Cmax",144 ng/mL
same,AUC(0-inf),"12.5 mg, 102 study, body weight 47-70 kg, read-out: arithmetic mean AUC0-∞",1850 ng·h/mL
same,Cmax,"12.5 mg, 102 study, body weight 47-70 kg, read-out: arithmetic mean Cmax",175 ng/mL
same,AUC(0-inf),"12.5 mg, 102 study, body weight 47-70 kg, read-out: geometric mean AUC0-∞",1690 ng·h/mL
same,Cmax,"12.5 mg, 102 study, body weight 47-70 kg, read-out: geometric mean Cmax",165 ng/mL
same,AUC(0-inf),"12.5 mg, 102 study, body weight 70.1-77 kg, read-out: arithmetic mean AUC0-∞",2500 ng·h/mL
same,Cmax,"12.5 mg, 102 study, body weight 70.1-77 kg, read-out: arithmetic mean Cmax",155 ng/mL
same,AUC(0-inf),"12.5 mg, 102 study, body weight 70.1-77 kg, read-out: geometric mean AUC0-∞",2420 ng·h/mL
same,Cmax,"12.5 mg, 102 study, body weight 70.1-77 kg, read-out: geometric mean Cmax",147 ng/mL
same,AUC(0-inf),"12.5 mg, 102 study, body weight 77.1-90 kg, read-out: arithmetic mean AUC0-∞",1790 ng·h/mL
